We go through 5 molecules from patent US20190093079A1, “METHODS FOR CONTROLLED PROLIFERATION OF STEM CELLS / GENERATING INNER EAR HAIR CELLS USING GSK-3-ALPHA INHIBITORS” (Frequency Therapeutics, Inc., priority 2016, published 2019).

For assay [1], the system named is Lgr5-GFP inner ear progenitor cells. Description: Expansion of Lgr5-GFP inner ear progenitor cells in Matrigel 3D culture. The settings on record: 10 days culture, background of EGF, bFGF, IGF-1 and VPA; FIGS. 1A and 2A. The format is cell-based, mouse. Here is the method:
Isolation of stem cells from the inner ear: All animal studies were conducted under an approved institutional protocol according to National Institutes of Health guidelines. For experiments with neonatal mice (postnatal days 1-3), the cochleae were dissected in HBSS and the organ of Corti was separated from the stria vascularis and the modiolus. The organs of Corti were then treated with Cell Recovery Solution (Corning) for 1 h to separate cochlear epithelium from the underlying mesenchyme. Epithelia were then collected and treated with TrypLE (Life Technologies) for 15-20 minutes at 37° C. Single cells obtained by mechanical trituration were filtered (40 μm) and suspended in Matrigel (Corning) for 3D culture.
Cells were cultured in a 1:1 mixture of DMEM and F12, supplemented with Glutamax (GIBCO), N2, B27 (Invitrogen), EGF (50 ng/mL; Chemicon), bFGF (50 ng/mL; Chemicon), IGF1 (50 ng/mL; Chemicon) and a GSK3-alpha inhibitor. […]
Lgr5-positive cells were quantified after 10 days (D10) in culture in multiple conditions. […] The cells were then stained with propidium iodide (PI) and analyzed using a flow cytometer for Lgr5-GFP expression. The number of GFP-positive cells and the percentage of GFP-positive cells were quantified. […]
Lgr5 cell quantification: Cell culture media was removed and Tryple was added. […] Live Lgr5-GFP cell number was counted using PI staining and the Lgr5-GFP.

Assay [2] has as its target T1, GSK3-alpha (Homo sapiens, UniProt P49840). Conditions: cited from earlier work; for IC50: potency = IC50, literature values.
Assay [3] deals with T1, GSK3-alpha. Briefly: GSK3-alpha potency (IC50), kinase assay. The settings on record: GSK3-alpha/GSK3-beta selectivity ratio = IC50 GSK3-beta divided by IC50 GSK3-alpha. The format is biochemical.
The target in the next assay is GSK3-beta (Homo sapiens, UniProt P49841). The settings on record: potency = IC50; literature values; cited from earlier work.
Assay [4] has as its system organ of Corti isolated from Lgr5-GFP mice. Briefly: Cochlear explant: organ of Corti treated ex vivo. It is filed as cell-based, mouse. Here is the method:
For cochlear explant studies, organ of Corti isolated from Lgr5-GFP mice were treated with either CHIR99021+VPA or GSK3-inhibitor XXII+VPA for 3 days. Organ of Corti were plated on a cover slip and bathed in media containing the drugs. Growth factors were not present. CHIR99021 (3 uM), GSK3-inhibitor XXII (0.3 uM), VPA (1 mM).

The test system of a further assay is noise-damaged inner ear. Briefly: Hearing recovery (ABR threshold) in noise damaged CBA/CaJ mice. It is filed as in vivo. The settings on record: trans-tympanic Poloxamer gel 24 h after noise exposure, ABR at 30 days, 5-40 kHz; FIG. 4. The method, then: For the mouse studies, a 17-19% (w/w) stock solution of poloxamer 407 gel (Sigma-Aldrich) was prepared by slowly adding it to cold 1× phosphate-buffered saline at pH 7.4. This solution is liquid when refrigerated or at room temperature but solidifies at body temperature. The gel was tinted blue with Evans blue dye (50 ppm) for visualization during administration.
A formulation was then prepared with 87.6 mg/ml VPA and 55.6 mg/ml CHIR99021 or 87.6 mg/ml VPA and 50 mg/ml GSK3 inhibitor XXII in 17-19% Poloxamer 407 with 5% DMSO.
CBA/CaJ mice were deafened in a noise chamber by exposure to an 8-16 kHz octave band noise band for 2 hours at 120 dB SPL. 24 hours after noise exposure, their hearing was assessed by measuring auditory brainstem responses (ABRs). The minimum sound pressure level (SPL) required for visual detection of ABR Wave I was determined at 5, 10, 20, 28.3, and 40 kHz. Following ABR measurements, a trans-tympanic injection of a Poloxamer gel drug mixture was delivered to fill the middle ear cavity. After 30 days, ABR was assessed and the improvement in hearing threshold from 24 hrs to 30 days after noise exposure was determined.

The structures appear in SMILES notation. “Also recorded” adds a separate entry of the source.

T1 sequence (P49840 whole entry, species assumed): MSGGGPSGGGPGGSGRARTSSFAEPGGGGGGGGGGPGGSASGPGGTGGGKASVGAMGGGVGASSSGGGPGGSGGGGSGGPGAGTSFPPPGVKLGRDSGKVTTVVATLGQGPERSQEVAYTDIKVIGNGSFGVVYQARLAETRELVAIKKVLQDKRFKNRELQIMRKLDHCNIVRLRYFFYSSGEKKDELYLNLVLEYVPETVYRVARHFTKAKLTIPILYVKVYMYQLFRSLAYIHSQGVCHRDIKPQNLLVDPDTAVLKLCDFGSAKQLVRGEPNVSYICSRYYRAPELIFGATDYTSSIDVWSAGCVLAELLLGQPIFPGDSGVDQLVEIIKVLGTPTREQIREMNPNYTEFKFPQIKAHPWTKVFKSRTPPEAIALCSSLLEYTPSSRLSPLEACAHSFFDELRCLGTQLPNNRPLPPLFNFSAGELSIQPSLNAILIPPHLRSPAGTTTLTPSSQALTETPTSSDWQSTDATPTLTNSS
Sequence of GSK3-beta (P49841 whole entry, species assumed): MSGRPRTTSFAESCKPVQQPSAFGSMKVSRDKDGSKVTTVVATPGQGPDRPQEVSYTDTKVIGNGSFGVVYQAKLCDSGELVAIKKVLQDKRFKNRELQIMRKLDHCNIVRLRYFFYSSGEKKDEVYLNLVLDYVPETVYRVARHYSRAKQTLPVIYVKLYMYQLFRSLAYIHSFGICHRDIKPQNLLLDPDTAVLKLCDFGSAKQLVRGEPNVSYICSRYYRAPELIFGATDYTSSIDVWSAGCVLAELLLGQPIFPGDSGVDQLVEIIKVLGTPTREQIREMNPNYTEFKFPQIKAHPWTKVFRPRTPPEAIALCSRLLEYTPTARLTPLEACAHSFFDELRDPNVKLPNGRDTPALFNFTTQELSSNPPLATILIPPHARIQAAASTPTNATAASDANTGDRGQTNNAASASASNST

Take `N#Cc1ccc2[nH]c(O)c(-c3ccc(CN4CCOCC4)cn3)c2c1` [AZD1080]: in assay [1], the “Expansion of Lgr5-GFP cells / Lgr5-GFP+ colonies” value was “large colonies of Lgr5-GFP+ cells were observed”. Also, on GSK3-alpha [2], the “GSK3α versus GSK3β inhibition preference” value is “preferentially inhibits GSK3α”.
For orientation: IC50 means the midpoint of a concentration-inhibition curve. Turning to `COc1ccccc1[C@@H]1C2=C(CC(C)(C)CC2=O)Nc2n[nH]c(C(F)(F)F)c21` [BRD1172], the “Ratio of Alpha to Beta” value at GSK3-alpha [3] turned out to be 3.3. Besides, the IC50 on GSK3-alpha [2] was 3 nM; at GSK3-beta, 10 nM.
`Cc1c[nH]c(-c2cnc(NCCNc3ccc(C#N)cn3)nc2-c2ccc(Cl)cc2Cl)n1` [CHIR99021]: the “GSK3α versus GSK3β inhibition preference” value on GSK3-alpha [2] is “preferentially inhibits GSK3β”.
Consider `Cc1ccc(C(=O)Nc2c[nH]nc2C(=O)NCCCOC(C)C)cn1` [GSK-3b XXII], for which, in assay [1], the “Expansion of Lgr5-GFP cells / Lgr5-GFP+ colonies” value is “large colonies of Lgr5-GFP+ cells were observed”. Moreover, in assay [4] (3 days, 0.3 uM with VPA 1 mM, FIG. 3), the “Lgr5-GFP expression in organ of Corti” value is on record as “increased Lgr5-GFP expression”. Moreover, the “rows of inner hair cells” value in assay [4] (3 days, normal 1 row, FIG. 3) turned out to be 2 rows. In addition, the “rows of outer hair cells” value in assay [4] (3 days, normal 3 rows, FIG. 3) is 6 rows. Moreover, the “hair cell number in organ of Corti” value in assay [4] (in combination with VPA, FIG. 3, listed as GSK3 inhibitor XXII) is recorded as “increase in hair cell number; also recorded: increased number of hair cells”. Moreover, the hearing recovery result in the assay on noise-damaged inner ear is given as “evidence of hearing recovery”. Moreover, at GSK3-alpha [2], the “GSK3α versus GSK3β inhibition preference” value is “equally inhibits GSK3α and GSK3β”; the IC50 was 2.3 nM.
Consider `O=C1NC(=O)[C@@H](c2cn3c4c(cccc24)CCC3)[C@@H]1c1c[nH]c2ccccc12` [Tivantinib], for which the IC50 at GSK3-alpha [2] is 659 nM; on GSK3-beta, 1870 nM.
